This test concerns CEM cells HIV-1 protection, formazan growth assay. The test can be described thus: NCI AIDS Antiviral Assay. The settings on record: for IC50: measured here: growth of uninfected CEM cells. Summed up:
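Protection of CEM cells against HIV-1 measured as cell growth via soluble formazan read-out, with five concentrations tested on both infected and uninfected cells; failure to protect may reflect toxicity.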

Active and inactive are the calls of the source.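 The calls were made as follows: active = compounds giving half or more protection of infected cells from virus-caused growth loss, again on retest; inactive = the rest.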 Where a SMILES comes first, the peptide text is derived from it. The star is where a group is joined. X11 = Clc1c(Cl)c(Cl)c(O*)c(Cl)c1Cl; Boc = CC(C)(C)OC(=O)*; OBn = c1ccc(CO*)cc1; Bn = c1ccc(C*)cc1

This note sets out measurements from PubChem BioAssay AID179 (DTP/NCI, 2004).

As usually defined, the EC50 is the concentration giving half of the maximal effect. One may read the IC50 as the midpoint of a concentration-inhibition curve. Low readings indicate greater potency in that assay, high ones weaker potency in that assay.

With `O=C1[C@@H]2C3SC(c4cc5ccccc5cc43)[C@@H]2C(=O)N1c1ccccc1`, the EC50 is above 72.4 µM and the IC50 is above 72.4 µM.

`O=C(O)c1ccc2c(O)c(O)ccc2c1`: the EC50 is above 77.6 µM and the IC50 is 6.03 µM.

As for `CC1=NN(C(=O)Cc2ccccc2)C(=O)/C1=C\c1ccccc1O`, the EC50 was above 22.4 µM and the IC50 is above 22.4 µM.

Turning to `COc1cccc(N2C(=O)C3c4[nH]c5ccc(C)cc5c4C4CCC(C)CC4C3C2=O)c1` (centres undefined), the EC50 is above 100 µM and the IC50 is above 100 µM.

Consider `[O]=[Sb][c]1ccc(Cl)cc1`, for which the EC50 was above 200 µM and the IC50 turned out to be 2.63 µM.

`CN(C)Cc1cc(C(=O)/C=C/c2ccc(Cl)cc2Cl)cc(CN(C)C)c1O`: the EC50 was above 200 µM and the IC50 was determined as 3.8 µM.

For `CC(C)(C)NC(=O)N1N=C(c2ccccc2)C1c1ccccc1` (centres undefined), the EC50 was above 200 µM and the IC50 came to 26.9 µM.

`CCCCCCCCCCCCCCCC[N+](C)(C)CCCS(=O)(=O)[O-]`: the outcome was inactive.

Regarding `CCOc1ccc(Nc2nc3c(s2)C(=O)c2ccccc2C3=O)cc1`, the EC50 was above 110 µM and the IC50 stood at 9.55 µM.

For `COc1ccc(NC(=O)C2=C(SC)C(=O)N=C2N)cc1`, the EC50 is above 100 µM and the IC50 was above 100 µM.

As to `NCCCCCNOCCCN`, the EC50 is above 200 µM and the IC50 was 132 µM.

Turning to `CCn1cnc2[nH]cc(C#N)c2c1=O`, the EC50 is above 200 µM and the IC50 is above 200 µM.

For the molecule `C/C(=C(/SS/C(C(=O)O)=C(/C)c1cccc(O)c1)C(=O)O)c1cccc(O)c1`, the EC50 was above 200 µM and the IC50 amounted to 135 µM.

`N#CC(/C(=N\NC(N)=S)C(=O)NC1C2CC3CC(C2)CC1C3)c1ccc(Cl)cc1` (centres undefined): the EC50 is above 17 µM and the IC50 is above 17 µM.

As for `Cc1ccc(-n2nnc3c(NNc4ccccc4)n[nH]c(=O)c32)cc1`, the EC50 was above 200 µM and the IC50 worked out at 25.7 µM.

For `COc1ccc(/C=C2\SC(=S)N(/C=C/c3nc4ccccc4[nH]c3=O)C2=O)cc1OC`, the EC50 was above 200 µM and the 50% inhibitory concentration (IC50) amounted to 32.4 µM.

As for `CCOC(=O)/C(C=Nc1c(C)n(C)n(-c2ccccc2)c1=O)=C(/C)O`, the EC50 was above 200 µM and the IC50 is above 200 µM.

Consider `Cc1c2c(c(C)c3c[n+](C)ccc13)Oc1ccccc1O2`, for which the EC50 was above 20 µM and the IC50 is 3.72 µM.

`CC(C)CC(NC(=O)C(CCC(=O)OCc1ccccc1)NC(=O)OC(C)(C)C)C(=O)NC(COCc1ccccc1)C(=O)NC(Cc1ccccc1)C(=O)Oc1c(Cl)c(Cl)c(Cl)c(Cl)c1Cl` (centres undefined) (Boc-E(OBn)LS(Bn)F-X11; configuration not given here): the EC50 is above 200 µM and the IC50 is 38.9 µM.

`CC(C)C1OC23CCCCC2C(C#N)(C#N)C1(C#N)C(=N)O3` (centres undefined): the EC50 was above 200 µM and the concentration for half-maximal inhibition (IC50) came to 5.89 µM.

As for `Nc1nc(Cl)cc(NCC2(CO)CCCC2)n1`, the EC50 was above 200 µM and the IC50 is 66.1 µM.

`CSC(SC)(C(=O)O)c1cc(-c2c(Cl)cccc2Cl)no1`: the EC50 was above 81.3 µM and the IC50 turned out to be 70.8 µM.

As to `COC(=O)[C@@]1(O)CC(C)C=C1C=O` (some centres undefined), the EC50 was above 1350 µM and the IC50 was determined as 28.8 µM.

Regarding `CC(C)=CCc1c(O)c(CC2=C(O)C(C)=C(O)C(CC=C(C)C)(C(=O)C(C)C)C2=O)c(O)c(C(=O)C(C)C)c1O` (centres undefined), the EC50 was above 100 µM and the IC50 came to 4.57 µM.

Take `O=C(NNc1ccccc1)C(O)C(O)C(O)C(O)C(O)CO` (centres undefined): the outcome was inactive.

In the case of `COc1ccc2c(-c3ccc(OCCN(C)C)cc3)c(Oc3ccccc3)c(=O)oc2c1`, the EC50 was above 200 µM and the IC50 came to 7.08 µM.

As for `CN(C)CCNC(=O)c1cc([N+](=O)[O-])cn1C`, the EC50 is above 200 µM and the IC50 was above 200 µM.

For `O=S(=O)(c1cc(Cl)ccc1Cl)N1CCN(c2ccc(Cl)c(Cl)c2)CC1`, the EC50 was above 200 µM and the IC50 was above 200 µM.

Take `COc1cc(CC2c3cc(OC)c(OC)cc3CCN2C)ccc1O` (centres undefined): the EC50 was above 380 µM and the IC50 was found to be 138 µM.

Turning to `COC(=O)C1CCc2c(OC)ccc(OC)c2C1=O` (centres undefined), the outcome was inactive.

Consider `O=C1CCCC[C@H]1[C@H]1CCC[C@@H]([C@H]2CCCCC2=O)C1=O`, for which the EC50 was above 871 µM and the IC50 stood at 398 µM.

Regarding `OCCNC(=S)SSC(=S)NCCO`, the result was inactive.

`C/C(CC(=O)Nc1cccc([N+](=O)[O-])c1)=N\NC(=O)CC#N`: the EC50 was above 832 µM and the IC50 was found to be 447 µM.

For the molecule `CC(C)(C)OC(=O)NCCNCCNc1ccccc1`, the result was inactive.

With `O=C(Sc1nnnn1-c1ccccc1)Sc1nnnn1-c1ccccc1`, the half-maximal effective concentration (EC50) is 97.7 µM and the IC50 is 178 µM.

With `COc1cc(C(C2=C(O)c3ccccc3C(=O)C2=O)C2=C(O)c3ccccc3C(=O)C2=O)cc(Br)c1O`, the EC50 was above 200 µM and the IC50 was 32.4 µM.

With `CCOC(=O)N1C2c3ccccc3C(c3ccccc32)N1C(=O)OCC`, the EC50 was above 56.2 µM and the concentration for half-maximal inhibition (IC50) was above 56.2 µM.

As for `O=C(NNC(=O)c1ccco1)c1ccco1`, the EC50 was above 200 µM and the IC50 is above 200 µM.

For `C#CCCOC(=O)CC1=C(C)/C(=C/c2ccc(S(C)=O)cc2)c2ccc(F)cc21` (centres undefined), the EC50 is above 200 µM and the IC50 is 14.8 µM.

Regarding `FC(F)(Sc1ccccn1)c1nc2ccccc2o1`, the EC50 is 14.8 µM and the IC50 is 89.1 µM.

For the molecule `Cc1nc(N)nc2c1CCC(O)S2` (centres undefined), the EC50 is above 200 µM and the IC50 came to 1.02 µM.

Regarding `Cc1ccc(C2NC(=S)N3C(c4ccc(C)cc4)NC(=S)N23)cc1` (centres undefined), the EC50 was above 200 µM and the half-maximal inhibitory concentration (IC50) was 3.39 µM.

In the case of `CN1CN(c2ccccc2)C2(CCN(CCc3csc4ccccc34)CC2)C1=O`, the EC50 is above 200 µM and the IC50 was 28.8 µM.

As to `CC1(C)C2CCC3(OCCO3)C1C(O)C2` (centres undefined), the EC50 was above 427 µM and the half-maximal inhibitory concentration (IC50) is above 427 µM.

In the case of `CCOC(=O)c1oc2ccc(OC)c3c2c1CCC3`, the outcome was inactive.

As to `COC(=O)c1cc(C(=O)c2cc(C)c(OC)c(C(=O)OC)c2)cc(C)c1OC`, the EC50 is above 200 µM and the IC50 turned out to be 66.1 µM.

Turning to `CSc1cc(-c2ccc(Cl)cc2)s[s+]1`, the EC50 is 50.1 µM and the IC50 worked out at 115 µM.

In the case of `S=c1nc2sc3c(c2c(Nc2ccc(Cl)cc2)[nH]1)CCCC3`, the EC50 was 43.7 µM and the IC50 is 132 µM.

Consider `Cc1ccc(S(=O)(=O)OI(O)CC(F)(F)F)cc1`, for which the EC50 was above 200 µM and the IC50 was above 200 µM.

`CC(=O)Nc1ccc(C(=O)CCC(NC(C)=O)C(=O)O)cc1` (centres undefined): the EC50 is above 200 µM and the 50% inhibitory concentration (IC50) is above 200 µM.

For `Cc1cc(Nc2ccc(S(=O)(=O)O)cc2)c2ccccc2n1`, the EC50 is above 200 µM and the IC50 is above 200 µM.

For the molecule `O=c1[nH]nc(NCc2ccccc2)c2nnn(Cc3ccccc3)c12`, the EC50 was above 200 µM and the IC50 is above 200 µM.

Regarding `CCC(=O)NC(Nc1cccc(F)c1C)(C(F)(F)F)C(F)(F)F`, the EC50 is above 200 µM and the IC50 was above 200 µM.

For `CCc1ccc2c(c1)CC1(C2)Cc2cc3c(cc2C1)C(=O)CC3` (centres undefined), the EC50 is above 200 µM and the IC50 came out at 12.6 µM.

For the molecule `CCN(CC)C(=S)SC1C(=O)NC(=O)NC1=O`, the EC50 is above 200 µM and the IC50 is above 200 µM.

On to `CC(=O)NC1=NC(=O)/C(=C/c2ccc(Cl)cc2Cl)N1C`, for which the outcome was inactive.

As to `COC(=O)[C@]1(Cc2ccc3ccccc3c2)CCCCCCN1C(=O)c1ccccc1`, the result was inactive.

As to `O=C1c2cc(O)cc(O)c2C(=O)c2c(O)cc(CO)cc21`, the result was inactive.

As to `C[C@]12CC[C@H](O)CC1CC[C@@H]1C2CC[C@]2(C)NC(=O)CCC12` (some centres undefined), the outcome was inactive.

`COc1cc(C)cc2c1C(=O)C(Br)=CC2=O`: the EC50 is above 200 µM and the IC50 turned out to be 1.95 µM.

`O=c1c2ccccc2oc2ccccc12` (tested in a mixture with another compound): the EC50 was above 11 µM and the IC50 turned out to be 0.776 µM.

`C=CCC12CC(OC)C(O)CC1(O)OC(c1cc(OC)c(OC)c(OC)c1)C2C` (centres undefined): the EC50 is above 200 µM and the IC50 is above 200 µM.

Take `O=C(N/N=C\C(F)(F)F)c1ccncc1`: the EC50 is above 200 µM and the IC50 amounted to 3.55 µM.

`CCCCCC1OC1(c1cc(Br)c(OC)c(C(=O)OC)c1)c1cc(Br)c(OC)c(C(=O)OC)c1` (centres undefined): the EC50 was above 200 µM and the IC50 is 67.6 µM.

As for `c1ccc(SC(CNCCc2ccco2)c2ccc3c(c2)OCO3)cc1` (centres undefined), the EC50 was above 200 µM and the IC50 is 26.9 µM.

On to `Nc1c2cc3ccc2nc2ccc(cc12)OCCOCCOCCOCCOCCOCCO3`, for which the EC50 was above 200 µM and the IC50 is above 200 µM.

As for `CSc1c(C#N)c(S)n(-c2ccc(Cl)cc2)c(=O)c1C#N`, the EC50 is above 200 µM and the IC50 worked out at 52.5 µM.

`N=C1c2ccccc2C(=O)c2c(NCCNCCO)ccc(O)c21`: the EC50 is above 7.76 µM and the concentration for half-maximal inhibition (IC50) stood at 0.759 µM.

Take `O=C1CSC(/C(=C/c2ccccc2)c2nc3ccccc3[nH]2)=N1`: the EC50 is 21.9 µM and the IC50 came out at 22.4 µM.

In the case of `Cc1cc(CC(=O)NCCO)n(CCO)c(=O)c1`, the EC50 is above 977 µM and the IC50 was above 977 µM.

For `COC(=O)/C=C/c1cc(OC)c(OC)c(OC)c1`, the EC50 was above 251 µM and the IC50 was 170 µM.

As to `Nc1ncnc2c1ncn2C1C(O)C(CO)C1CO` (centres undefined), the EC50 is above 186 µM and the IC50 was above 186 µM.

With `CCOc1ccccc1-n1c(-c2ccc([N+](=O)[O-])cc2)csc1=NC(=O)c1cccc([N+](=O)[O-])c1`, the EC50 was above 200 µM and the IC50 was 186 µM.

On to `COc1ccc(-c2sc(N)c(C#N)c2C)cc1OC`, for which the outcome was inactive.

For `[O-][n+]1nc2ccccc2c2ccccc21`, the EC50 was above 347 µM and the IC50 is 141 µM.
